Results on eight compounds are retold here after ChEMBL document CHEMBL4376903, “Cereblon Based Immunomodulatory Therapeutics” (ACS Med Chem Lett, 2020).

Holding throughout (assay type): cell-based
The target in one test is T1, Estrogen receptor (Homo sapiens, UniProt P03372).
T1 sequence (P03372 whole entry): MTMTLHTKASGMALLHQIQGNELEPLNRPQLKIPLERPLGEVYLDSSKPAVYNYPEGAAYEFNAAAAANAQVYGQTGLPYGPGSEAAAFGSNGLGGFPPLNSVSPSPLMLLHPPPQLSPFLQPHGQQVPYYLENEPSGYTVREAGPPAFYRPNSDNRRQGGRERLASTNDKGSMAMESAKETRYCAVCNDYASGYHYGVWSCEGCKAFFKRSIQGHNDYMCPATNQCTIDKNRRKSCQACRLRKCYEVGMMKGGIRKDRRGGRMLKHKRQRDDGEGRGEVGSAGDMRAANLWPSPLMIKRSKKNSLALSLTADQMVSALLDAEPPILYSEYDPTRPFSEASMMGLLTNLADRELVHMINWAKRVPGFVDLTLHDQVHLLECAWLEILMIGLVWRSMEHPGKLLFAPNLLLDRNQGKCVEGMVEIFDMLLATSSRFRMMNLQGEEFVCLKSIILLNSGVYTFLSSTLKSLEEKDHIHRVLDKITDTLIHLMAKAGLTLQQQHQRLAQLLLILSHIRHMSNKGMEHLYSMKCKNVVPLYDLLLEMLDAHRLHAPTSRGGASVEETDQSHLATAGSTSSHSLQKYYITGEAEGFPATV
Kind of test: Inhibition of ERalpha in human T47D cells by ERE-driven luciferase reporter gene assay based target engagement assay. (In general: In a reporter assay the amount or activity of a reporter protein is the signal.)

In test [1] the target is T2, Protein cereblon/Estrogen receptor (Homo sapiens, UniProt P03372+Q96SW2). Kind of test: Protac activity at cereblon/ERalpha in human MCF7 cells assessed as induction of ERalpha protein degradation by Western blot analysis. In general terms: In western blotting, separated proteins are transferred to a membrane and probed.
Target sequence in this assay (Q96SW2 whole entry, one chain of several): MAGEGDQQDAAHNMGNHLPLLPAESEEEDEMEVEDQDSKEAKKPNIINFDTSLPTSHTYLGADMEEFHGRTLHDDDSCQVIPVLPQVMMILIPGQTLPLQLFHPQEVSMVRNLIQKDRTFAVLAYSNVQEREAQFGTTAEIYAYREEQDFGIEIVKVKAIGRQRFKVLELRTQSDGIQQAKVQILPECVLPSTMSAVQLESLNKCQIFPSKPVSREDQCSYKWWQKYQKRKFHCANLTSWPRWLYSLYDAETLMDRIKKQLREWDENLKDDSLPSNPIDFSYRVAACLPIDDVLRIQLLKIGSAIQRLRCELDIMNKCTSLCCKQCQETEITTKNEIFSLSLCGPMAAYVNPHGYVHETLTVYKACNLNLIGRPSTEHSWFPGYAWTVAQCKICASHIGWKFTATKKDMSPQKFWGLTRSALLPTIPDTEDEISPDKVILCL
In test [2] the target is T2, Protein cereblon/Estrogen receptor. Kind of test: Protac activity at cereblon/ERalpha in human MCF7 cells assessed as induction of ERalpha protein degradation by Western blot analysis relative to control.
Target sequence in this assay (Q96SW2 whole entry, looked up, one chain of several): as the sequence (Q96SW2 whole entry, one chain of several) above

pIC50: −log10 of the molar value.

Broadly, the pIC50 is the IC50 on a negative log10 scale, so that one unit is a factor of ten. The low end stands for a high IC50, the high end for a low IC50. As a reminder, the DC50 is the concentration at which degradation of the target reaches its halfway point. As usually defined, the Emax is the size of the effect at its maximum, as opposed to the concentration needed.

The compound `COc1cc(N2CCN(CCCCCOc3ccc([C@@H]4c5ccc(O)cc5CC[C@@H]4c4ccccc4)cc3)CC2)cc2c1C(=O)N([C@H]1CCC(=O)NC1=O)C2` had a negative-log IC50 (pIC50) on Estrogen receptor of 9.31. In test [1], the DC50 is less than 1 nM. For the same compound, in test [2], the Emax was greater than 75%.

In turn, `COc1cc(N2CCN(CCCCCOc3ccc([C@@H]4c5ccc(O)cc5CC[C@@H]4c4ccccc4)cc3)CC2)cc2c1C(=O)N([C@@H]1CCC(=O)NC1=O)C2` had a pIC50 against Estrogen receptor of 9.43. In addition, the DC50 in test [1] was less than 1 nM. Also, the maximal effect (Emax) in test [2] was greater than 75%.

`COc1cc(N2CCN(CC(=O)C3CC(Oc4ccc([C@@H]5c6ccc(O)cc6CC[C@@H]5c5ccccc5)cc4)C3)CC2)cc2c1C(=O)N(C1CCC(=O)NC1=O)C2` (some centres undefined): on Estrogen receptor, the pIC50 is 9.15. The DC50 in test [1] was less than 1 nM. Further, the maximal response (Emax) in test [2] is greater than 75%.

Turning to `COc1cc(N2CCN(C3CC4CC(Oc5ccc([C@@H]6c7ccc(O)cc7CC[C@@H]6c6ccc(F)cc6)cc5)CC4C3)CC2)cc2c1C(=O)N(C1CCC(=O)NC1=O)C2` (some centres undefined), the negative logarithm of the IC50 (pIC50) on Estrogen receptor is 9.09. The DC50 in test [1] was less than 1 nM. Also, the Emax in test [2] lay in the range of 50 to 75%.

As to `COc1cc(N2CCN(CCCCCOc3ccc([C@@H]4c5ccc(O)cc5CC[C@@H]4c4ccccc4)cc3)CC2)cc2c1C(=O)N(C1CCC(=O)NC1=O)C2` (some centres undefined), the pIC50 at Estrogen receptor was 9.10. Also, the DC50 in test [1] lay within 1 to 10 nM. The Emax in test [2] is greater than 75%.

The compound `COc1cc(N2CCN(CCC3CCN(c4ccc([C@@H]5c6ccc(O)cc6CC[C@@H]5c5ccccc5)cc4F)CC3)CC2)cc2c1C(=O)N(C1CCC(=O)NC1=O)C2` (some centres undefined) gave a negative logarithm of the IC50 (pIC50) against Estrogen receptor of 9.15. Further, the 50% degradation concentration (DC50) in test [1] lay within 1 to 10 nM. Further, the maximal response (Emax) in test [2] is greater than 75%.

Take `COc1cc(N2CCN(CCC3(O)CC(Oc4ccc([C@@H]5c6ccc(O)cc6CC[C@@H]5c5ccccc5)cc4)C3)CC2)cc2c1C(=O)N(C1CCC(=O)NC1=O)C2` (some centres undefined): on Estrogen receptor, the pIC50 was 9.52. In addition, in test [1], the 50% degradation concentration (DC50) was less than 1 nM. The maximum response (Emax) in test [2] was greater than 75%.

In the case of `O=C1CCC(N2Cc3cc(N4CCN(CCC5(O)CC(Oc6ccc([C@@H]7c8ccc(O)cc8CC[C@@H]7c7ccccc7)cc6)C5)CC4)cc(OC(F)F)c3C2=O)C(=O)N1` (some centres undefined), the negative-log IC50 (pIC50) on Estrogen receptor is 9.30. Further, the DC50 in test [1] was less than 1 nM. Also, the Emax in test [2] lay within 50 to 75%.
